The source of these data is patent US10538516B2, “Oxadiazole derivative and pharmaceutical containing same” (National Center for Geriatrics and Gerontology, priority 2015, dated 2020).

T1 sequence (P05067 672-711 limits assumed): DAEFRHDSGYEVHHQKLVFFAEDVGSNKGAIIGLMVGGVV

The first assay concerns the target T1, GAβ-dependent amyloid fibril formation (Human Aβ1-40 + GM1-containing liposome) (Homo sapiens, UniProt P05067).
T1 construct: Human Aβ1-40 (cat. #4307-v, prepared by Peptide Institute); purchased Peptide Institute 4307-v
Nature of the assay: Thioflavin T (ThT) assay of GAβ-dependent amyloid fibril formation (Aβ1-40 with GM1-containing liposome). Type of assay: biochemical. The following applies: @25 μM; read-out: ThT Inhibitory activity (% inhibition). Put shortly: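 Human Aβ1-40 (75 μM stock) pre-incubated 10 min at room temperature with compound (75 or 15 μM solution), then GM1-containing cholesterol/sphingomyelin liposome added and incubated 37° C, 18 hours. Fibrils quantified by ThT fluorescence (ex 430/em 490 nm, pH 8.5 glycine buffer); inhibition as ratio to compound-free control.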
Regarding `O=C(N[C@@H](CO)c1nc(-c2ccc(OCCO)cc2)no1)c1ccccc1` [Compound 156, N-[(1S)-2-hydroxy-1-{3-[4-(2-hydroxyethoxy)phenyl]-1,2,4-oxadiazol-5-yl}ethyl] benzamide], the inhibition at 25 µM amounted to 74%.

Consider `O=C(N[C@@H](CO)c1nc(-c2cccs2)no1)c1ccc(F)cc1` [Compound 178, 4-fluoro-N-[(1S)-2-hydroxy-1-[3-(thiophen-2-yl)-1,2,4-oxadiazol-5-yl]ethyl]benzamide], for which the inhibition at 25 µM amounted to 61%.

For the molecule `COCCCNC(=O)c1ccc(-c2noc([C@H](CO)NC(=O)c3ccc(F)cc3)n2)cc1` [Compound 147, 4-{5-[(1S)-1-[(4-fluorophenyl) formamido]-2-hydroxyethyl]-1,2,4-oxadiazol-3-yl}-N-(3-methoxypropyl) benzamide], the inhibition at 25 µM is 53%.

With `O=C(N[C@@H](CO)c1nc(-c2csc3ccccc23)no1)c1ccc(F)cc1` [Compound 230, N-[(1S)-1-[3-(1-benzothiophen-3-yl)-1,2,4-oxadiazol-5-yl]-2-hydroxyethyl]-4-fluorobenzamide], the inhibition at 25 µM amounted to 73%.

As to `O=C(N[C@@H](CO)c1nc(-c2ccc(C(F)(F)F)cc2)no1)c1ccc(N2CCCC2)cc1` [Compound 203, N-[(1S)-2-hydroxy-1-{3-[4-(trifluoromethyl)phenyl]-1,2,4-oxadiazol-5-yl}ethyl]-4-(pyrrolidin-1-yl) benzamide], the inhibition at 25 µM turned out to be 81%.

The same assay, now with this note: inhibition rate against amyloid fibril formation, final concentration of the compound 25 μM; read-out: Inhibitory activity ABC evaluation.
In the case of `O=C(NC(CO)c1nc(-c2ccc(C(F)(F)F)cc2)no1)c1n[nH]c2ccccc12` (centres unmarked) [Compound 186, N-(2-hydroxy-1-{3-[4-(trifluoromethyl)phenyl]-1,2,4-oxadiazol-5-yl}ethyl)-1H-indazole-3-carboxamide], the inhibition at 25 µM fell in the range of 40 to 80%.

In the case of `C=C(NC(=O)c1ccc(Cl)cc1)c1nnc(-c2ccc(OC(F)(F)F)cc2)o1` [Compound 115, 4-chloro-N-(1-(5-(4-(trifluoromethoxy)phenyl)-1,3,4-oxadiazol-2-yl)vinyl)benzamide], the inhibition at 25 µM is below 40%.

Consider `CS(=O)(=O)Nc1ccc(-c2noc(C3CC(=O)N(c4ccc(Cl)cc4)C3)n2)cc1` (centres unmarked) [Compound 65, N-(4-[5-{1-(4-chlorophenyl)-5-oxopyrrolidin-3-yl}-1,2,4-oxadiazol-3-yl]phenyl) methane-sulfonamide], for which the inhibition at 25 µM was 40 to 80%.

As to `O=C1CC(c2nc(-c3ccc(OC(F)(F)F)cc3)no2)CN1c1cncc(Cl)c1` (centres unmarked) [Compound 51, 1-(5-chloropyridin-3-yl)-4-[3-{4-(trifluoro-methoxy)phenyl}-1,2,4-oxadiazol-5-yl]pyrrolidin-2-one], the inhibition at 25 µM was below 40%.

Turning to `O=C1CC(c2nc(-c3ccc(OC(F)(F)F)cc3)no2)CN1c1ccc(Cl)nc1` (centres unmarked) [Compound 48, 1-(6-chloropyridin-3-yl)-4-[3-{4-(trifluoro-methoxy)phenyl}-1,2,4-oxadiazol-5-yl] pyrrolidin-2-one], the inhibition at 25 µM was 40 to 80%.

As for `O=C1CC(c2nc(-c3ccccc3OC(F)(F)F)no2)CN1c1ccc(Cl)cc1` (centres unmarked) [Compound 67, 1-(4-chloro-phenyl)-4-[3-{2-(trifluoro-methoxy)phenyl}-1,2,4-oxadiazol-5-yl]pyrrolidin-2-one], the inhibition at 25 µM fell in the range of 40 to 80%.

As to `O=C(N[C@@H](CO)c1nc(-c2ccc(OCC(F)(F)F)cc2)no1)c1ccc(F)cc1` [Compound 216], the inhibition at 25 µM is below 40%.

As to `O=C(N[C@@H](CO)c1nc(-c2ccc(OCCO)cc2)no1)c1ccccc1` [Compound 156, N-[(1S)-2-hydroxy-1-{3-[4-(2-hydroxyethoxy)phenyl]-1,2,4-oxadiazol-5-yl}ethyl] benzamide], the inhibition at 25 µM fell in the range of 40 to 80%.

In the case of `O=C1CC(c2nc(-c3ccc(OC(F)(F)F)cc3)no2)CN1c1ccc(Cl)cc1F` (centres unmarked) [Compound 28, 1-(4-chloro-2-fluorophenyl)-4-[3-{4-(trifluoromethoxy)phenyl}-1,2,4-oxadiazol-5-yl]pyrrolidin-2-one], the inhibition at 25 µM was 40 to 80%.

Consider `O=C(N[C@@H](CO)c1nc(-c2ccc(O)c(F)c2)no1)c1ccc(Cl)cc1` [Compound 99, (S)-4-chloro-N-(1-(3-(3-fluoro-4-hydroxyphenyl)-1,2,4-oxadiazol-5-yl)-2-hydroxy-ethyl)benzamide], for which the inhibition at 25 µM lay in the range of 40 to 80%.

Regarding `O=C(N[C@@H](CO)c1nc(-c2cccs2)no1)c1ccc(F)cc1` [Compound 178, 4-fluoro-N-[(1S)-2-hydroxy-1-[3-(thiophen-2-yl)-1,2,4-oxadiazol-5-yl]ethyl]benzamide], the inhibition at 25 µM lay within 40 to 80%.

For the molecule `O=C(N[C@@H](CO)c1nc(-c2c[nH]c3cc(Cl)ccc23)no1)c1ccc(F)cc1` [Compound 263, N-[(1S)-1-[3-(6-chloro-1H-indol-3-yl)-1,2,4-oxadiazol-5-yl]-2-hydroxyethyl]-4-fluorobenzamide], the inhibition at 25 µM is 40 to 80%.

Regarding `COCCCNC(=O)c1ccc(-c2noc([C@H](CO)NC(=O)c3ccc(F)cc3)n2)cc1` [Compound 147, 4-{5-[(1S)-1-[(4-fluorophenyl) formamido]-2-hydroxyethyl]-1,2,4-oxadiazol-3-yl}-N-(3-methoxypropyl) benzamide], the inhibition at 25 µM was 40 to 80%.

Turning to `Nc1n[nH]cc1-c1noc([C@H](CO)NC(=O)c2ccc(F)cc2)n1` [Compound 257, N-[(1S)-1-[3-(3-amino-1H-pyrazol-4-yl)-1,2,4-oxadiazol-5-yl]-2-hydroxyethyl]-4-fluorobenzamide], the inhibition at 25 µM lay within 40 to 80%.

Consider `O=C(c1c[nH]c2ccccc12)N1C[C@H](O)C[C@H]1c1nc(-c2ccc(OC(F)(F)F)cc2)no1` [Compound 47, ((2S,4R)-4-hydroxy-2-[3-{4-(trifluoro-methoxy)phenyl}-1,2,4-oxadiazol-5-yl]pyrrolidin-1-yl)(1H-indol-3-yl)methanone], for which the inhibition at 25 µM was below 40%.

`O=C1CC(c2nc(-c3ccc(OC(F)(F)F)cc3)no2)CN1c1ccc(Cl)cn1` (centres unmarked) [Compound 49, 1-(5-chloropyridin-2-yl)-4-[3-{4-(trifluoro-methoxy)phenyl}-1,2,4-oxadiazol-5-yl] pyrrolidin-2-one]: the inhibition at 25 µM was 40 to 80%.

In the case of `O=C(N[C@@H](CO)c1nc(-c2ccc(C(F)(F)F)cc2)no1)c1ccc(Oc2ccccc2)cc1` [Compound 201, N-[(1S)-2-hydroxy-1-{3-[4-(trifluoromethyl)phenyl]-1,2,4-oxadiazol-5-yl}ethyl]-4-phenoxybenzamide], the inhibition at 25 µM was above 80%.

For `O=C(N[C@@H](CO)c1nc(-c2csc3ccccc23)no1)c1ccc(F)cc1` [Compound 230, N-[(1S)-1-[3-(1-benzothiophen-3-yl)-1,2,4-oxadiazol-5-yl]-2-hydroxyethyl]-4-fluorobenzamide], the inhibition at 25 µM was in the range of 40 to 80%.

On to `O=C(N[C@@H](CO)c1nc(-c2nccc3ccccc23)no1)c1ccc(F)cc1` [Compound 226, 4-fluoro-N-[(1S)-2-hydroxy-1-[3-(isoquinolin-1-yl)-1,2,4-oxadiazol-5-yl]ethyl]benzamide], for which the inhibition at 25 µM fell in the range of 40 to 80%.

Take `COc1ccc2[nH]cc(-c3noc([C@H](CO)NC(=O)c4ccc(F)cc4)n3)c2c1` [Compound 261, 4-fluoro-N-[(1S)-2-hydroxy-1-[3-(5-methoxy-1H-indol-3-yl)-1,2,4-oxadiazol-5-yl]ethyl] benzamide]: the inhibition at 25 µM was 40 to 80%.

As for `O=C(NC(CO)c1nc(-c2ccc(OC(F)(F)F)cc2)no1)c1c[nH]c2ccccc12` (centres unmarked) [Compound 46, N-(2-hydroxy-1-[3-{4-(trifluoro-methoxy)phenyl}-1,2,4-oxadiazol-5-yl]ethyl)-1H-indole-3-carboxamide], the inhibition at 25 µM fell in the range of 40 to 80%.

On to `O=C(N[C@@H](CO)c1nc(-c2cccc(C(F)(F)F)c2)no1)c1ccccc1` [Compound 177, N-[(1S)-2-hydroxy-1-{3-[3-(trifluoromethyl)phenyl]-1,2,4-oxadiazol-5-yl}ethyl] benzamide], for which the inhibition at 25 µM is above 80%.

On to `O=C(N[C@@H](CO)c1nc(-c2n[nH]c3ccccc23)no1)c1ccc(F)cc1` [Compound 265, 4-fluoro-N-[(1S)-2-hydroxy-1-[3-(1H-indazol-3-yl)-1,2,4-oxadiazol-5-yl]ethyl] benzamide], for which the inhibition at 25 µM lay in the range of 40 to 80%.

Turning to `O=C(N[C@@H](CO)c1nc(-c2c[nH]c3ccc(Cl)cc23)no1)c1ccc(N2CCCC2)cc1` [Compound 253, N-[(1S)-1-[3-(5-chloro-1H-indol-3-yl)-1,2,4-oxadiazol-5-yl]-2-hydroxyethyl]-4-(pyrrolidin-1-yl) benzamide], the inhibition at 25 µM was 40 to 80%.

On to `O=C(N[C@H](CO)c1nc(-c2ccc(OC(F)(F)F)cc2)no1)c1ccc(Cl)cc1` [Compound 83, (R)-4-chloro-N-(2-hydroxy-1-[3-{4-(trifluoromethoxy)phenyl}-1,2,4-oxadiazol-5-yl]ethyl)benzamide], for which the inhibition at 25 µM was above 80%.

With `O=C(N[C@@H](CO)c1nc(-c2cc(C(F)(F)F)cc(C(F)(F)F)c2)no1)c1ccc(F)cc1` [Compound 215, N-[(1S)-1-{3-[3,5-bis(trifluoromethyl)phenyl]-1,2,4-oxadiazol-5-yl}-2-hydroxyethyl]-4-fluorobenzamide], the inhibition at 25 µM was in the range of 40 to 80%.

Regarding `O=C(N[C@@H](CO)c1nc(-c2ccc(OCCN3CCOCC3)cc2)no1)c1ccccc1` [Compound 158, N-[(1S)-2-hydroxy-1-(3-{4-[2-(morpholin-4-yl)ethoxy]phenyl}-1,2,4-oxadiazol-5-yl)ethyl] benzamide], the inhibition at 25 µM was 40 to 80%.

In the case of `O=C(N[C@@H](CO)c1nc(-c2csc(Cl)c2)no1)c1ccc(F)cc1` [Compound 227], the inhibition at 25 µM lay in the range of 40 to 80%.

Turning to `O=C(N[C@@H](CO)c1nc(-c2cc(Cl)c(Cl)[nH]2)no1)c1ccc(F)cc1` [Compound 249, N-[(1S)-1-[3-(4,5-dichloro-1H-pyrrol-2-yl)-1,2,4-oxadiazol-5-yl]-2-hydroxyethyl]-4-fluorobenzamide], the inhibition at 25 µM fell in the range of 40 to 80%.

Take `O=C1CC(c2nc(-c3ccc(OC(F)F)cc3)no2)CN1c1ccc(Cl)cc1` (centres unmarked) [Compound 52, 1-(4-chlorophenyl)-4-[3-{4-(difluoro-methoxy)phenyl}-1,2,4-oxadiazol-5-yl]pyrrolidin-2-one]: the inhibition at 25 µM is 40 to 80%.

In the case of `O=C(NC(CO)(CO)c1nc(-c2ccc(OC(F)(F)F)cc2)no1)c1ccc(Cl)cc1` [Compound 102, 4-chloro-N-(1,3-dihydroxy-2-{3-[4-(trifluoromethoxy)phenyl]-1,2,4-oxadiazol-5-yl}propan-2-yl)benzamide], the inhibition at 25 µM lay in the range of 40 to 80%.

On to `O=C(N[C@@H](CO)c1nc(-c2ccc(C(F)(F)F)cc2)no1)c1ccc(N2CCCC2)cc1` [Compound 203, N-[(1S)-2-hydroxy-1-{3-[4-(trifluoromethyl)phenyl]-1,2,4-oxadiazol-5-yl}ethyl]-4-(pyrrolidin-1-yl) benzamide], for which the inhibition at 25 µM is above 80%.

In the case of `O=C(NCC(CO)c1nc(-c2ccc(C(F)(F)F)cc2)no1)c1ccc(F)cc1` (centres unmarked) [Compound 151, 4-fluoro-N-(3-hydroxy-2-{3-[4-(trifluoro-methyl)phenyl]-1,2,4-oxadiazol-5-yl}propyl)benzamide], the inhibition at 25 µM lay in the range of 40 to 80%.
